# pIC50: −log10 of the molar value.
# Biological target: T1, Orai1/STIM1 (Homo sapiens, UniProt Q96D31)
# T1 construct: c-myc (C); expressed in transfected cells; host or cells: HEK-293 cells stably overexpressing human STIM1, stably transfected with pcDNA3.1-Orai1-cmyc
# Assay: Fluorescence-based assay of store-operated calcium entry in Orai1/STIM1 stable cells
# Assay type: cell-based
# Conditions: HEK-293 cells stably expressing human STIM1 and Orai1; Peak-Basal fluo-4 signal; Table iv; read-out: Orai1/STIM1 (IC50, μmol)
# Procedure: A. Fluorescence-based Assay of Store-Operated Calcium Entry in Orai1/STIM1 Stable Cells.
# Cells stably expressing recombinant human STIM1 and Orai1 are generated by transfecting a human Orai1 expression plasmid (pcDNA3.1-Orai1-cmyc) into HEK-293 cells stably overexpressing human ST1M1 (Roos et al. 2005 JCB 169(3): 435-445). Colonies of cells stably expressing both STIM1 and Orai1 proteins are selected and then subcloned by limiting dilution. Cells were cultured at 37° C./6% CO2 in complete medium with 10% FBS and appropriate selection markers.
# The day prior to performing the assay Orai1/STIM1 stable cells are plated in 50 μL of complete medium at 90-95% confluence in a 384 well plate. Cells are grown at 37° C./6% CO2 overnight. […] The initial baseline fluorescence signal is then measured with a FLIPR^384 (Molecular Devices) plate reader. Calcium entry is initiated by adding 5 μl of 10× CaCl2 (10 mM) in HBSS, and changes in cellular fluorescence are measured with the FLIPR^384 plate reader. In each well, the magnitude of the fluorescence signal as a result of calcium entry into the cell is determined by calculating the difference between the peak fluorescence signal measured after calcium addition and the initial baseline fluorescence signal (designated Peak-Basal). […]
# T1 sequence (Q96D31 whole entry): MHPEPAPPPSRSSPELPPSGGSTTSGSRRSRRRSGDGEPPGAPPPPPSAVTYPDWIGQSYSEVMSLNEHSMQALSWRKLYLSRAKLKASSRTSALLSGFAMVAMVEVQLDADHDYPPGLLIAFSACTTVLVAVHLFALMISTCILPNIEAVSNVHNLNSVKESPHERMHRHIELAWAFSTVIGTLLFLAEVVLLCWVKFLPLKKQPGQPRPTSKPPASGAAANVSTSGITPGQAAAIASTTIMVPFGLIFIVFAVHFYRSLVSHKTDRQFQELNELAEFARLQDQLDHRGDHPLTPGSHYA
row,pIC50,Compound
1,5.92 to 6.22,Cc1cccc(F)c1C(=O)Nc1ccc(-c2cc(-c3ccccc3F)nn2C)s1 [Compound 23]

# Test system: RBL-2H3 cells
# Assay: Fluorescence-based assay of store-operated calcium entry in RBL-2H3 cells
# Assay type: cell-based
# Conditions: Rattus norvegicus, Table v, read-out: IC50 (nM) RBL
# Procedure: B. Fluorescence-based Assay of Store-Operated Calcium Entry in RBL-2H3 Cells.
# RBL-2H3 cells are obtained from ATCC and maintained in complete medium with 10% FBS at 37° C./6% CO2.
# The day prior to performing the assay, RBL-2H3 cells are plated in 50 μL of complete medium in a 384 well plate. Cells are grown at 37° C./6% CO2 overnight and grow to 50-60% confluence by the next day. On the assay day, 1.5 μM Fluo-4-AM dye (Invitrogen) in complete medium is added and incubated for 1 hour at RT. Cells are washed twice in Ca^2+-free HBSS buffer and 35 μL Ca^2|-free HBSS buffer is added to each well. 10 μL of a test compound prepared in a Ca^2+-free HBSS solution at […] of the desired concentration is added to a well and incubated for 5 minutes at RT. 10 μL of thapsigargin prepared in a Ca^2+-free HBSS solution at 5.5× of the desired concentration (5.5 uM) is added to each well and incubated for an additional 25 minutes. The initial baseline fluorescence signal is measured with a FLIPR^384 (Molecular Devices) plate reader. 5 μL of 12× calcium in HBSS (12 mM) is added and changes in cellular fluorescence arc measured with the FLIPR^384 plate reader. In each well, the change in the fluorescent signal as a function of time due to calcium entry into the cell is determined by calculating the difference between the fluorescent signal measured 7 seconds after calcium addition and the initial baseline fluorescence signal at time zero (t=0). This parameter is designated Upslope. The IC50 value is calculated as the concentration at which 50% of the Upslope is inhibited.
row,IC50 [nM],Compound
1,106,"C=Cn1nc(-c2nccs2)cc1-c1ccc(NC(=O)c2c(F)cccc2F)s1 [Compound 5, (2,6-difluorophenyl)-N-[5-(3-(1,3-thiazol-2-yl)-1-vinylpyrazol-5-yl](2-thienyl)] carboxamide]"

# Same assay, conditions: Rattus norvegicus, thapsigargin, Upslope of fluo-4 signal, Table iii, read-out: RBL-2H3 (IC50, μmol)
row,Compound,pIC50
1,"CCc1oc(C(F)(F)F)nc1-c1ccc(NC(=O)c2c(F)cccc2F)nc1 [Compound 25, N-(5-(5-ethyl-2-(trifluoromethyl)oxazol-4-yl)pyridin-2-yl)-2,6-difluorobenzamide]",> 6.22
2,"Cc1oc(C(F)(F)F)nc1-c1ccc(NC(=O)c2c(F)cncc2F)nc1 [Compound 17, 3,5-difluoro-N-(5-(5-methyl-2-(trifluoromethyl)oxazol-4-yl)pyridin-2-yl)isonicotinamide]",> 6.22
3,"Cc1oc(C(F)(F)F)nc1-c1ccc(NC(=O)c2c(F)cccc2F)nc1 [Compound 14, 2,6-difluoro-N-(5-(5-methyl-2-(trifluoromethyl)oxazol-4-yl)pyridin-2-yl)benzamide]",> 6.22
4,"CCc1oc(C(F)(F)F)nc1-c1ccc(NC(=O)c2ccccc2F)nc1 [Compound 24, N-(5-(5-ethyl-2-(trifluoromethyl)oxazol-4-yl)pyridin-2-yl)-2-fluorobenzamide]",> 6.22

# Continued, values first:
row,pIC50,Compound
1,> 6.22,"Cc1oc(C(F)(F)F)nc1-c1ccc(NC(=O)c2cccc(F)c2C)nc1 [Compound 19, 3-fluoro-2-methyl-N-(5-(5-methyl-2-(trifluoromethyl)oxazol-4-yl)pyridin-2-yl)benzamide]"
2,> 6.22,Cc1oc(C(F)(F)F)nc1-c1ccc(NC(=O)c2ccccc2F)nc1 [Compound 16]
3,> 6.22,Cc1ccccc1C(=O)Nc1ccc(-c2nc(C(F)(F)F)oc2C)cn1 [Compound 15]

# Same assay, conditions: Rattus norvegicus, thapsigargin, Upslope of fluo-4 signal, Table iv, read-out: RBL-2H3 (IC50, μmol)
row,Compound,pIC50
1,"Cn1nc(-c2ccccn2)cc1-c1ccc(NC(=O)c2c(F)cccc2F)s1 [Compound 28, 2,6-difluoro-N-(5-(1-methyl-3-(pyridin-2-yl)-1H-pyrazol-5-yl)thiophen-2-yl)benzamide]",> 6.22
2,"Cn1nc(-c2nccs2)cc1-c1ccc(NC(=O)c2c(F)cc(F)cc2F)s1 [Compound 10, (2,4,6-trifluorophenyl)-N-[5-[1-methyl-3-(1,3-thiazol-2-yl)pyrazol-5-yl](2-thienyl)] carboxamide]",> 6.22
3,Cc1cccc(F)c1C(=O)Nc1ccc(-c2cc(-c3ccccc3F)nn2C)s1 [Compound 23],> 6.22

# More lines, now with the values ahead:
row,pIC50,Compound
1,> 6.22,CCn1nc(-c2nccs2)cc1-c1ccc(NC(=O)c2c(F)cccc2F)s1 [Compound 15]
2,> 6.22,CCn1nc(-c2nccs2)cc1-c1ccc(NC(=O)c2c(F)cc(F)cc2F)s1 [Compound 16]
3,> 6.22,"Cn1nc(-c2ccccn2)cc1-c1ccc(NC(=O)c2c(F)cc(F)cc2F)s1 [Compound 27, 2,4,6-trifluoro-N-(5-(1-methyl-3-(pyridin-2-yl)-1H-pyrazol-5-yl)thiophen-2-yl)benzamide]"
4,> 6.22,"Cn1nc(-c2nccs2)cc1-c1ccc(NC(=O)c2ccc(F)cc2F)s1 [Compound 7, (2,4-difluorophenyl)-N-[5-[1-methyl-3-(1,3-thiazol-2-yl)pyrazol-5-yl](2-thienyl)] carboxamide]"
5,> 6.22,"Cn1nc(-c2nccs2)cc1-c1ccc(NC(=O)c2c(F)cccc2F)s1 [Compound 6, (2,6-difluorophenyl)-N-[5-[1-methyl-3-(1,3-thiazol-2-yl)pyrazol-5-yl](2-thienyl)] carboxamide]"

# Test system: JR251
# Assay: JR251 IC50 (Table v)
# Assay type: cell-based
# Conditions: not given
row,IC50 [nM],Compound
1,1210,"C=Cn1nc(-c2nccs2)cc1-c1ccc(NC(=O)c2c(F)cccc2F)s1 [Compound 5, (2,6-difluorophenyl)-N-[5-(3-(1,3-thiazol-2-yl)-1-vinylpyrazol-5-yl](2-thienyl)] carboxamide]"

# From patent US20170044152A1, “COMPOUNDS THAT MODULATE INTRACELLULAR CALCIUM” (CalciMedica, Inc., priority 2012, published 2017)
